Laboratory results as given in PMC12085399, “Quantitative in vitro-to-in vivo extrapolation of human adrenergic and trace amine-associated receptor 1 potencies of pre-workout supplement ingredients using physiologically based kinetic modelling-based reverse dosimetry” (Archives of Toxicology, 2025).
Read-outs that look alike come from different tables or passages of the source.

Legend:
in vitro = details: human; for Papp B→A at 60 min, 10 µM: Caco-2, pH 7.4; for recovery at 60 min, 10 µM: after 60 min, mean ± SD
Method: (§1) Caco-2 cells (ATCC, Manassas, VA, USA; passage 30–44) were cultured in DMEM (Gibco, New York, USA) containing 4.5 g/L d-glucose, 4 mM L-glutamine and supplemented with 10% FBS (Gibco, Grand Island, NY, USA), 1% minimal essential medium non-essential amino acids (Gibco, Paisley, UK), 100 units/mL penicillin and 100 µg/mL streptomycin (Gibco, Grand Island, NY, USA). Cells were seeded at a density of 4.0 × 10^4 cells/cm^2 on polyester transwell insert membranes (12 mm insert, 0.4 µm pore size; Corning incorporated, Kennebunk, ME, USA). Cells were maintained in a humidified incubator with 5% CO2 at 37 °C for 21 or 22 days in 0.5 mL and 1.5 mL medium in the apical and basolateral compartments, respectively. The medium was refreshed every two or three days and always one day before the permeability assay.
(§2) On the day of the experiment, cells were washed twice with HBSS without phenol red (pH 7.4; Sigma-Aldrich, Steinheim, Germany) supplemented with 0.35 g/L sodium bicarbonate and 25 mM HEPES and they were equilibrated in this supplemented HBSS for 15 min in a humidified incubator with 5% CO2 at 37 °C. […] These stocks were diluted to a final concentration of 10 µM in pre-warmed supplemented HBSS (final DMSO level = 0.1%). After 15 min, the transepithelial electrical resistance (TEER) was measured with an Epithelial Voltohmmeter (World Precision Instruments, Sarasota, USA). Compound transport was studied in two directions: from the apical to the basolateral compartment (A-B) and from the basolateral to the apical compartment (B-A). For A-B experiments, 450 µL of the compound (10 µM) was added to the apical side and 1200 µL supplemented HBSS was added to the basolateral side. A sample of 50 µL was removed immediately from the apical compartment at time point zero. After 15 and 30 min, samples were taken from the basolateral compartment. Cells were kept in the incubator during the experiment. After 60 min, medium from both compartments was sampled, cells were washed twice with supplemented HBSS and were maintained in the incubator. After 15 min, the TEER was measured again to check for epithelial barrier damage due to compound exposure. After this, cells were lysed in RIPA buffer (Thermo Scientific, Rockford, IL, USA). For B-A experiments, 400 µL of supplemented HBSS was added to the apical side and 1250 µL of the compound (10 µM) was added to the basolateral side. A sample of 50 µL was removed immediately from the basolateral compartment at time point zero. After 15 and 30 min, samples were taken from the apical compartment. After 60 min, samples were taken similarly as in A-B experiments. The sampled medium and cell lysates were stored at −20 °C till the day of the liquid chromatography–mass spectrometry (LC–MS/MS) analysis. All experiments were run in duplicate. The compounds were quantified with LC–MS/MS as described in Sect. "LC–MS/MS analysis".
(§3) Before chemical analysis, cell lysates were two times diluted in ice-cold methanol and centrifuged at 15,000 rpm at 4 °C. The supernatant was then injected into the LC–MS/MS system. Sampled buffer from donor compartments was diluted 40 times in buffer and samples from the receiver compartment were analysed undiluted. Standards were prepared in the same assay buffer to quantify the amount of compound in medium samples. For quantification of compounds in cell lysates, standards were prepared in a mixture of 50% RIPA buffer and 50% methanol.
(§4) All data are presented as mean ± SD.
(§5) For the < Tsi > a value of 3.32 h was used (Grandoni et al. [2019]).

[1] = In vitro hepatic clearance by human liver S9 (compound depletion); type: in vitro ADME
Method: In vitro intrinsic hepatic clearance (CLint) values of the phenethylamine analogues were determined in experiments with pooled human liver S9 (HLS9; Corning, Woburn, MA, USA and Gibco, USA), by measuring the rate of compound depletion. Stocks of 1 mM PEA compounds were prepared in DMSO and stocks of 10 mg/mL alamethicin were prepared in methanol. The final incubation mixtures consisted of 1 µM of PEA compound (0.1% DMSO) in 100 mM potassium phosphate buffer with 5 mM magnesium chloride (pH 7.4) supplemented with 0.025 mg/mL alamethicin (0.25% methanol) and 0.1–2 mg/mL HLS9. […] Incubation mixtures were first pre-incubated at 37 °C in a shaking incubator at 300 rpm for 5 min. After 5 min, the reaction was initiated by adding a co-factor mix in supplemented buffer with final concentrations of 3 mM nicotinamide adenine dinucleotide phosphate (NADPH; for oxidation, reduction and hydrolysis), 5 mM uridine diphosphate glucuronic acid (UDPGA; for glucuronidation), 0.2 mM adenosine 3’-phosphate 5’-phosphosulfate lithium salt hydrate (PAPS; for sulfation) and 0.2 mM S-(5’-Adenosyl)-L-methionine p-toluenesulfonate salt (SAM; for methylation). The final incubation volume was 100 µL and incubations were performed in 1.5 mL Safe-Lock Eppendorf tubes (Eppendorf) in a shaking incubator (300 rpm) at 37 °C (Eppendorf Thermomixer). Incubations were terminated by adding 100 µL ice-cold acetonitrile after, 0, 2.5, 5, 10, 20, 40 and 60 min. Then, samples were vortexed, put on ice and stored at -20 °C until the day of the LC–MS/MS analysis. Controls of incubation mixtures without HLS9 or mixtures without co-factors were also included. Two independent experiments, both in duplicate, were performed on different days. On the day of the LC–MS/MS analysis, samples were thawed and centrifuged at 15,000 rpm for 10 min. The supernatant was collected in glass insert vials for LC injection (BGB Analytik, Harderwijk, The Netherlands). Details on the methods of the LC–MS/MS analysis are described in Sect. "LC–MS/MS analysis". After determining the PEA (analogue) amount at the different time points, the CLint was calculated. The natural logarithm of compound concentrations was plotted against time and the slope of this curve represented the elimination rate constant k (in 1/min). The half-life (t1/2 in minutes) was calculated by: ln (2)/k (in 1/min). The volume of incubation (V) in µL/mg protein was determined by: 1000 / HLS9 concentration (in mg/mL). Finally, CLint could be calculated by: CLintμL/min/mg protein=VμL/mg protein∗ln2/t1/2min.
The fraction unbound in these in vitro liver clearance incubations was calculated with the method of (Hallifax and Houston [2006]) in which unspecific binding in HLS9 incubations was assumed to be the same as in liver microsomal incubations. The in vitro obtained HLS9 CLint values were corrected for protein binding in the HLS9 incubation and were scaled to a whole liver by using a scaling factor of 121 mg HLS9/g liver (Houston and Galetin [2008]).

Caco-2 cells = experiment: in vitro; details: scaled from corrected Caco-2 Papp A-B, human
Method: as §1, §2, §3, §4, §5

ADRα1A = experiment: PBK modelling-based reverse dosimetry of in vitro EC50 to ED50, ADRα1A; details: predicted human oral ED50 from in vitro EC50 (Pinckaers et al. [2024]) and modelled Cmax plasma venous
Description: (§6) The in vitro effect concentrations (EC50), for activation of the α1A, α1B, α1D, α2A, α2B, β1 and β2 ADR activation and the activation of TAAR1, were obtained from our previous study (Pinckaers et al. [2024]).

ADRα1D = experiment: PBK modelling-based reverse dosimetry of in vitro EC50 to ED50, ADRα1D; details: predicted human oral ED50 from in vitro EC50 (Pinckaers et al. [2024]) and modelled Cmax plasma venous
Description: as §6

ADRα2A = experiment: PBK modelling-based reverse dosimetry of in vitro EC50 to ED50, ADRα2A; details: predicted human oral ED50 from in vitro EC50 (Pinckaers et al. [2024]) and modelled Cmax plasma venous
Description: as §6

TAAR1 = experiment: PBK modelling-based reverse dosimetry of in vitro EC50 to ED50, TAAR1; set-up: species or system human; details: predicted human oral ED50 from in vitro EC50 (Pinckaers et al. [2024]) and modelled Cmax plasma venous
Description: as §6

ADRβ2 = experiment: PBK modelling-based reverse dosimetry of in vitro EC50 to ED50, ADRβ2; details: predicted human oral ED50 from in vitro EC50 (Pinckaers et al. [2024]) and modelled Cmax plasma venous
Description: as §6

ADRα1B = experiment: PBK modelling-based reverse dosimetry of in vitro EC50 to ED50, ADRα1B; details: predicted human oral ED50 from in vitro EC50 (Pinckaers et al. [2024]) and modelled Cmax plasma venous
Description: as §6

[2] = Caco-2, pH 7.4, Papp A-B, Caco-2, apical to basolateral, 10 µM, HBSS pH 7.4, mean ± SD, duplicate

Structure (SMILES)	Papp B→A at 60 min, 10 µM (in vitro) [×10⁻⁶ cm/s]	Papp A→B at 60 min, 10 µM (in vitro; [2]) [×10⁻⁶ cm/s]	Predicted intrinsic hepatic metabolic clearance CLmet ([1]; CLint,u scaled to a whole liver, 121 mg HLS9/g liver, human) [L/h]	metabolism in incubations without co-factor mix ([1]; HLS9 without co-factor mix)	k el at 1 µM ([1]; human, pH 7.4) [s⁻¹]	microsomal CLint at 1 µM ([1]; human, s9, pH 7.4, CLint app corrected for unspecific protein (HLS9) binding, read-out: In vitro CLint,u) [µL/min/mg]	microsomal CLint at 1 µM ([1]; human, s9, pH 7.4, human liver S9 with co-factor mix (NADPH, UDPGA, PAPS, SAM), 1 µM, read-out: In vitro CLint app) [µL/min/mg]	Papp A→B at 60 min, 10 µM (in vitro; Caco-2, pH 7.4, Papp A-B corrected, corrected for the difference between Papp A-B of metoprolol in this study and in literature) [×10⁻⁶ cm/s]	recovery at 60 min, 10 µM (in vitro; Caco-2, pH 7.4, Recovery (A-B), Caco-2, A-B experiments) [%]	recovery at 60 min, 10 µM (in vitro; Caco-2, pH 7.4, Recovery (B-A), Caco-2, B-A experiments) [%]	fa (fraction absorbed) (Caco-2 cells)	ka (absorption rate constant) (Caco-2 cells) [h⁻¹]	ADRα1A ED50 (ADRα1A) [mg/kg bw]	ADRα1D ED50 (ADRα1D) [mg/kg bw]	ADRα2A ED50 (ADRα2A)	TAAR1 ED50 (TAAR1) [mg/kg bw]	ADRβ2 ED50 (ADRβ2)	ADRα1B ED50 (ADRα1B) [mg/kg bw]
COCCc1ccc(OCC(O)CNC(C)C)cc1 (centres unmarked) [Metoprolol, metoprolol, reference compound]	9.25 ± 0.17	11.2 ± 0.197	–	–	–	–	–	–	–	–	–	–	–	–	–	–	–	–
NCC(O)c1ccc(O)cc1 (centres unmarked) [p-Octopamine, octopamine]	0.117 ± 0.0171	0.164 ± 0.0701	75.4	metabolized in incubations without co-factor mix	0.000203	7.06	6.05	0.584	98.9 ± 1.77	109 ± 15	0.947	0.395	15.7	1.72	– (compounds with a dash (-) did not activate the receptors in vitro at concentrations ≤ 300 µM)	65.8	– (compounds with a dash (-) did not activate the receptors in vitro at concentrations ≤ 300 µM)	5.58
